Measurements from patent publication US20050215635A1, “Diarylheptanoid compounds and uses thereof” (priority 2004, published 2005).

Tests used:
[1] = test system: NF-κB DNA binding activity; assay: Electrophoresis mobility shift assay (EMSA) of NF-κB DNA binding in RAW 264.7 nuclear extracts; assay type: cell-based, mouse; conditions: RAW 264.7, 2 hrs
Method: FIG. 6A and 6B. Inhibition of LPS induced NF-κB activation by HMP. 6A: Nuclear protein lysates of RAW 264.7 cells were prepared after 2 hrs of treatment with LPS (0.5 μg/ml) either alone or with different concentration of HMP. Six μg of nuclear protein was used in DNA binding assay and the total binding reaction was resolved in 5% nondenaturing polyacrylamide gel. The retarded bands are indicated with arrow. Data represent one of three experiments performed separately with similar results. Lane 1, control; 2, LPS (0.5 μg/ml); 3, LPS+HMP (25 μM); 4, HMP (12.5 μM). NS, non specific. 6B: Plot of integrated signal density for each lane in FIG. 6A.
RAW 264.7 cells were treated with either LPS (0.5 μg/ml) alone or with various concentration of HMP for 2 hrs. Thereafter, nuclear extracts were prepared using a modified method (Lahti et al., 2000 294:1188-1194). Briefly, cells were washed once with PBS (pH 7.2) and were suspended in hypotonic buffer A [10 mM HEPES (pH 7.6), 10 mM KCl, 0.1 mM EDTA, 1 mM DTT, 0.5 mM PMSF] for 10 min on ice, and vortexed for 10 sec. Nuclei were pelleted by centrifugation at 12,000 g for 5 minutes. […] Mobility shift of DNA due to binding of NF-κB complex was detected by Phosphor Imager-445 SI (Molecular Dynamics, Amarsham-Pharmacia, NJ, USA).

[2] = test system: LPS induced NO production from mouse macrophage cells (RAW 264.7); assay: Nitric oxide measurement (nitrite, Griess reagent) in LPS-treated RAW 264.7 cells; assay type: cell-based; conditions: RAW 264.7, 24 hrs
Method: The mouse macrophage cells (RAW 264.7) were cultured in DMEM supplemented with 15% fetal bovine serum (FBS) and antibiotic and antimycotic mixture. The cell suspension of 50,000 cells/well was cultured in flat bottom microtitre plate in quadruplicate for 12 hrs. Thereafter, 100 μl of media was replaced with fresh medium containing either LPS (0.5 μg/ml) alone or LPS with various concentrations of HMP and further cultured for 24 hrs. The culture supernatant was collected at the end of culture for nitrite assay, which was used as a measure of NO production. Culture supernatant (100 μl) was mixed with equal volume of Griess reagent (SIGMA, MO, USA) and the absorbance was measured at 570 nm. The concentration of nitrite (μM) was calculated from standard curve drawn with known concentration of sodium nitrite dissolved in DMEM. The results are presented as mean ±SD of 4 replicates of one representative experiment and this experiment was repeated 5 times. For the NO assay, RAW 264.7 cells were treated with LPS (0.5 μg/ml) and/or various concentrations of HMP for 24 hrs and amount of nitrite in supernatant from each treatment group was measured using Griess reagent. Each data point represents mean+standard deviation (SD) of 5 replicates of one representative experiment of total 6 experiments.

COX-2 protein expression = assay: Western blotting of COX-2 protein expression in RAW 264.7 cells; assay type: cell-based, mouse; conditions: HMP 12.5 and 25 μM + LPS (0.5 μg/ml), RAW 264.7, 18 hrs
Method: FIG. 3. Inhibition of LPS induced iNOS and COX-2 protein expression by HMP. RAW 264.7 cells were treated with various concentrations of HMP and/or LPS (0.5 μg/ml) for 18 h. Total-cell lysate (40 μg) was resolved in 8-10% SDS-PAGE then transferred to PVDF membrane and detected with specific antibodies as described in Section 6. This experiment was repeated 4 times with similar observations. Lane-1, Control (without any treatment); 2, LPS (0.5 μg/ml); 3, LPS and HMP 25 μM; 4, LPS and HMP-12.5 μM.
At indicated time points, cells were rapidly washed with ice-cold PBS and solubilized in cold lysis buffer containing 10 mM Tris-base, 5 mM EDTA, 50 mM NaCl, 1% Triton X-100, 5 mM phenylmethylsulfonyl fluoride (PMSF), 2 mM sodium orthovanadate, 10 μg/ml leupeptin, 25 μg/ml aprotinin, 1 mM sodium pyrophosphate, and 20% glycerol. […]
Equal amount of protein (40 μg) from each sample was loaded on SDS-polyacrylamide electrophoresis gel (8 and 10% separating gels for iNOS and p42/44^MAPK, respectively) and resolved for 1.5 h at 120 V in buffer containing 95 mM Tris-HCl, 960 mM glycine, and 0.5% SDS. […] Specific bands were detected by enhanced chemiluminescence's detection system (Amersham-Pharmacia biotech, NJ, USA) and the membrane was exposed to X-ray film. […]

What does the source list for `COc1cc(CC/C=C/C(=O)CCc2ccccc2)ccc1O` [AO-4, 7-(4″-hydroxy-3″-methoxyphenyl)-1-phenyl-hept-4-en-3-one]?
LPS induced NF-κB DNA binding activity (EMSA, in words) ([1]; HMP 25 μM + LPS (0.5 μg/ml)): marked inhibition; relative levels of NF-κB DNA binding activity (EMSA, in words) ([1]; HMP 12.5 and 25 μM + LPS (0.5 μg/ml)): less in comparison to LPS alone; Nitrite ([2]; HMP 6.25 μM + LPS (0.5 μg/ml)): 14.54 ± 2.5 µM; Nitrite ([2]; HMP 6.25 μM alone): 3.66 ± 1.08 µM; Nitrite ([2]; HMP 12.5 μM + LPS (0.5 μg/ml)): 13.75 ± 2.65 µM; Nitrite ([2]; HMP 12.5 μM alone): 3.88 ± 1.14 µM; Nitrite ([2]; HMP 25 μM + LPS (0.5 μg/ml)): 9.95 ± 1.41 µM; Nitrite ([2]; HMP 25 μM alone): 3.86 ± 0.97 µM; LPS induced production of nitric oxide (in words) ([2]; HMP 6.25-25 μM + LPS (0.5 μg/ml)): significantly inhibited by HMP in a dose dependent manner; NO production, HMP alone (in words) ([2]; HMP alone): no effect on NO production; LPS induced COX-2 protein expression (Western blot, in words) (COX-2 protein expression): markedly inhibited
